Residues, ends and D or L forms follow the SMILES beside them.
Key:
[1] = system: human corneal epithelial cells; assay: Co-culture of human corneal epithelial cells and Th17 cells, density and morphology by microscopy, Examples 2 and 3; type: cell-based; details: 0.1 μM, 1 μM, 10 μM and 100 μM; 24 hours
Description: A co-culture of human corneal epithelial cells and Th17 cells was prepared, to mimic the in vivo interaction between Th17 cells and cornea tissue in dry eye disease. The therapeutic efficacy of an IL-17 inhibitor to protect the human corneal epithelial cells from Th17-induced damage was tested. Immortalized human corneal epithelial cells were obtained. To acquire human Th17 cells, naïve CD4+ T cells were first purified from primary human peripheral blood mononuclear cells (StemCell) by negative selection using MACS separation, follow by in vitro polarization to Th17 cells using human Th17 cell differentiation kit (RnD Systems) in X-VIVO 15 medium (Lonza). Successful differentiation of human Th17 cells was confirmed by flow cytometry before co-culture. At about 80% confluence of human corneal epithelial cell culture, 1×10^5 Th17 cells were added, with and without an IL-17 inhibitor. After 24 hours of co-culture in the presence of the IL-17 inhibitor, the density and morphology of human corneal epithelial cells were observed under a bright-light inverted microscope equipped with a camera.
A co-culture of human corneal epithelial cells and Th17 cells was prepared, to mimic the in vivo interaction between Th17 cells and cornea tissue in dry eye disease. The therapeutic efficacy of an IL-17 inhibitor to protect the human corneal epithelial cells from Th17-induced damage was tested. […]

[2] = system: mice induced with dry eye disease; assay: Corneal fluorescein staining (CFS) score in mice with induced dry eye disease, Example 1; type: in vivo; details: topical to the eye, day 4 to day 12; antibody 1 wt % once or twice daily, lifitegrast 5 wt % twice daily, cyclosporine 0.05 wt % twice daily
Description: FIG. 1 is a graph of corneal fluorescein staining (CFS) scored using the National Eye Institute Industry Workshop Scale of 0-15, as a function of time, in days, in mice induced with dry eye disease by placing them in a controlled-environment chamber (relative humidity: <20%, dry airflow: 15 L/min, temperature: 21˜23° C.) for 14 days. Corneal epithelial disease was evaluated using corneal fluorescein staining (CFS) and scored using the National Eye Institute Industry Workshop Scale of 0-15, at day 0 (normal baseline), day 4 (before instillation of topical therapy), day 7, day 10, and […] in mice treated by topical application to the eye with an anti-IL-17A antibody once daily (closed circles) or twice daily (closed squares), lifitegrast (XIIDRA®) twice daily (inverted triangles), cyclosporine (RESTASIS®) twice daily (triangles), or saline twice daily (diamonds).
In a first study, described in Example 1, treatment of dry eye disease with an IL-17 cytokine inhibitor, lifitegrast ophthalmic solution (XIIDRA®), and cyclosporine ophthalmic emulsion (RESTASIS®) were compared. […] The test compounds were applied topically to the eye for 9 days (from day 4 to day 12), and disease severity was evaluated using corneal fluorescein staining (CFS) and scored using the National Eye Institute Industry Workshop Scale of 0-15 on days 4, 7, 10 and 12. […]

[3] = system: goblet cells; assay: Goblet cell count in conjunctival tissue sections of dry eye mice, Example 1; type: in vivo; details: conjunctiva, mice with dry eye disease treated twice daily
Description: With continued reference to the study of Example 1, ocular tissue was harvested from the mice and tissue sections were prepared for microscopy analysis. Cross-sections of the conjunctiva were stained and the images were inspected to quantify goblet cell density. Goblet cells within the conjunctival epithelium secrete mucins onto the surface of the eye. FIG. 3A is an image of conjunctiva from a healthy mouse with no dry eye disease, and the goblet cells are visible as the darkly stained, plump cells. FIGS. 3B-3E are images from the conjunctiva from a subject in the animals with dry eye disease and treated twice daily with saline as a control (FIG. 3B), cyclosporine ophthalmic emulsion (RESTASIS®; FIG. 3C), lifitegrast ophthalmic solution (XIIDRA®) (FIG. 3D), or anti-IL-17A antibody (FIG. 3E). The numbers of goblet cells were counted, and FIG. 3F is a bar graph of the percent of normal goblet cells for the normal (healthy) mice and mice with dry eye disease treated with saline, cyclosporine, lifitegrast or an IL-17A inhibitor. […] Subjects with dry eye disease and treated with cyclosporine or with lifitegrast had about 60% of the normal number of goblet cells. […]

Row | Compound | toxicity to human corneal epithelial cells [1] | effect on dry eye disease severity (disease score, CFS) [2] | goblet cells, percent of the normal number [3]
1 | CC[C@H](C)[C@H](NC(=O)[C@H](Cc1c[nH]c2ccccc12)NC(=O)[C@H](CC(=O)O)NC(=O)[C@H](Cc1c[nH]c2ccccc12)NC(=O)[C@H](CC(C)C)NC(=O)[C@H](CC(=O)O)NC(=O)[C@H](C)NC(=O)[C@@H]1CCCN1C(=O)[C@@H](NC(=O)[C@@H](NC(=O)[C@@H](NC(=O)[C@H](Cc1c[nH]cn1)NC(=O)[C@@H](N)C(C)C)C(C)C)[C@@H](C)O)[C@@H](C)CC)C(=O)N[C@@H](CC(N)=O)C(=O)N[C@@H](CCCCN)C(=O)O [SEQ ID NO: 1, VHVTIPADLWDWINK] (H-VHVTIPADLWDWINK-OH) | not toxic to the human corneal epithelial cells |  | 
2 | CS(=O)(=O)c1cccc(C[C@H](NC(=O)c2c(Cl)cc3c(c2Cl)CCN(C(=O)c2ccc4ccoc4c2)C3)C(=O)O)c1 [lifitegrast] |  | no improvement in reducing in disease severity for the first six days of treatment, followed by an improved disease score at day 12 | about 60%

Source: patent US20250312412A1, “METHODS FOR TREATING DRY EYE DISEASE” (The Schepens Eye Research Institute, Inc., priority 2022, published 2025)
